Experiment [1] deals with peroxisomes (pDsRed2-Peroxi Vector labelled compartments). The following applies: photo-bleaching at 514 nm, complex excited at 405 nm (FIG. 4). As for the experimental part:
FIG. 4: Co-localisation experiment with Clontech pDsRed2-Peroxi Vector. […] Fluorescence micrographs of co-localisation experiment i) Excited at 405 nm pre-photo-bleaching; ii) excited at 514 nm pre photo-bleaching iii) excited at 514 nm post photo-bleaching; iv) Excited at 405 nm post photo-bleaching. HaCaT cells were grown on glass coverslips under the same conditions as in described in Steel 2015 referred to herein. […] The coverslips were then washed in PBS and mounted by inversion on a glass slide. Images were captured on a Zeiss LSM 850 Meta laser scanning confocal microscope.

For experiment [2], the system named is peroxisomes in HaCaT cells. As for the experimental part:
FIG. 1: Chemical structure of a compound of the invention (and the compound referred to in the figures for example as the platinum complex) and confocal micrograph of HaCaT cells after 10 minutes exposure to 25 μg/ml of the platinum complex (ex 405 nm, emission 505-740 nm). […] A compound of the invention may be prepared as a salt, for example as a sodium salt as described herein, and is used as an imaging agent in a buffer solution. HaCaT cells were grown on glass coverslips under the same conditions as in described in Steel 2015 referred to herein. […] The coverslips were then washed in PBS and mounted by inversion on a glass slide. Images were captured on a Zeiss LSM 850 Meta laser scanning confocal microscope.

Another experiment has as its system HaCaT cells. The conditions noted are these: HaCaT cells with and without microtubule-depolymerising levels of nocodazole (FIG. 2). On the procedure:
HaCaT cells were grown on glass coverslips under the same conditions as in described in Steel 2015 referred to herein. […] The coverslips were then washed in PBS and mounted by inversion on a glass slide. Images were captured on a Zeiss LSM 850 Meta laser scanning confocal microscope.

Where [3] appears, read: PBS containing compound at 125 μg/ml, 10 minutes at 4° C.

Where two headings read alike, the source gives them in different places.

As for PtMe3bpy-S-glutathione [compound A], the “co-localisation with peroxisome marker” value in experiment [1] is “platinum complex emission was retained in the same cellular compartments”. Besides, the staining pattern entry in experiment [2] (10 minutes exposure to 25 μg/ml, ex 405 nm, emission 505-740 nm (FIG. 1)) is on record as “punctate pattern”. Also, in experiment [2] (setting [3]), the staining pattern entry is listed as “punctate staining pattern, characteristic of peroxisomes” and the uptake by cells result is “readily taken up by cells”. In the experiment on HaCaT cells, the “motility of the stained compartments” value is listed as “microtubule-dependent motility”.
